From PubChem BioAssay (NCI)
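Following 48 hours of exposure in 96-well plates, responses at five concentrations were used to interpolate endpoints linearly. TGI: total growth inhibition.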

How the values were obtained:
Assay in all cases: NCI anticancer screen, dose series, 48 h
[1] = tested on: 786-0 renal
[2] = tested on: A498 renal
[3] = tested on: A549 NSCLC
[4] = tested on: ACHN renal
[5] = tested on: CAKI-1 renal
[6] = tested on: CCRF-CEM leukemia
[7] = tested on: COLO 205 colon
[8] = tested on: DU-145 prostate
[9] = tested on: EKVX NSCLC
[10] = tested on: HCC-2998 colon
[11] = tested on: HCT-116 colon
[12] = tested on: HCT-15 colon
[13] = tested on: HOP-62 NSCLC
[14] = tested on: HOP-92 NSCLC
[15] = tested on: HS 578T breast
[16] = tested on: HT29 colon
[17] = tested on: IGROV1 ovarian
[18] = tested on: K-562 leukemia
[19] = tested on: KM12 colon
[20] = tested on: LOX IMVI melanoma
[21] = tested on: MALME-3M melanoma
[22] = tested on: MCF7 breast
[23] = tested on: MDA-MB-231 breast
[24] = tested on: MDA-MB-435
[25] = tested on: MDA-N
[26] = tested on: MOLT-4 leukemia
[27] = tested on: NCI-H226 lung
[28] = tested on: NCI-H23 lung
[29] = tested on: NCI-H460 lung
[30] = tested on: NCI-H522 lung
[31] = tested on: NCI/ADR-RES ovarian
[32] = tested on: OVCAR-3 ovarian
[33] = tested on: OVCAR-5 ovarian
[34] = tested on: OVCAR-8 ovarian
[35] = tested on: PC-3 prostate
[36] = tested on: RPMI-8226 leukemia
[37] = tested on: RXF 393 renal
[38] = tested on: SF-268 CNS
[39] = tested on: SF-295 CNS
[40] = tested on: SF-539 CNS
[41] = tested on: SK-MEL-5 melanoma
[42] = tested on: SN12C renal
[43] = tested on: SNB-19 CNS
[44] = tested on: SNB-75 CNS
[45] = tested on: SR leukemia
[46] = tested on: SW-620 colon
[47] = tested on: T-47D breast
[48] = tested on: U251 CNS
[49] = tested on: UACC-257 melanoma
[50] = tested on: UO-31 renal

Question: For `C=CCO[C@]1(CC=C)C(=O)C(=O)OC1C1COC(C)(C)O1` (stereo not given in full), which TGI [1] is on record?
Answer: Its TGI is over 100 µM.

Question: What about the TGI [2] of the same compound?
Answer: Its TGI is over 100 µM.

Question: What about the TGI [3] of the same compound?
Answer: The TGI was over 100 µM.

Question: What about the TGI [4] of the same compound?
Answer: Its TGI is 31.1 µM.

Question: And the TGI [5]?
Answer: Its TGI is 41.9 µM.

Question: What about the TGI [6] of the same compound?
Answer: Its TGI is 89.5 µM.

Question: What about the TGI [7] of the same compound?
Answer: Its TGI is 37.5 µM.

Question: What about the TGI [8] of the same compound?
Answer: The TGI was over 100 µM.

Question: What about the TGI [9] of the same compound?
Answer: The TGI was over 100 µM.

Question: What about the TGI [10] of the same compound?
Answer: Its TGI is over 100 µM.

Question: And the TGI [11]?
Answer: The TGI was 74.7 µM.

Question: And the TGI [12]?
Answer: The TGI was 42 µM.

Question: What about the TGI [13] of the same compound?
Answer: The TGI was over 100 µM.

Question: What about the TGI [14] of the same compound?
Answer: The TGI was 41.3 µM.

Question: And the TGI [15]?
Answer: The TGI was over 100 µM.

Question: What about the TGI [16] of the same compound?
Answer: Its TGI is 37.2 µM.

Question: What about the TGI [17] of the same compound?
Answer: The TGI was over 100 µM.

Question: What about the TGI [18] of the same compound?
Answer: Its TGI is over 100 µM.

Question: And the TGI [19]?
Answer: Its TGI is 39.3 µM.

Question: And the TGI [20]?
Answer: Its TGI is 31.5 µM.

Question: What about the TGI [21] of the same compound?
Answer: Its TGI is 32.3 µM.

Question: What about the TGI [22] of the same compound?
Answer: Its TGI is 42 µM.

Question: And the TGI [23]?
Answer: The TGI was over 100 µM.

Question: What about the TGI [24] of the same compound?
Answer: The TGI was over 100 µM.

Question: What about the TGI [25] of the same compound?
Answer: Its TGI is over 100 µM.

Question: And the TGI [26]?
Answer: Its TGI is 93.8 µM.

Question: And the TGI [27]?
Answer: The TGI was over 100 µM.

Question: And the TGI [28]?
Answer: The TGI was over 100 µM.

Question: And the TGI [29]?
Answer: Its TGI is over 100 µM.

Question: And the TGI [30]?
Answer: Its TGI is 43.6 µM.

Question: What about the TGI [31] of the same compound?
Answer: Its TGI is over 100 µM.

Question: What about the TGI [32] of the same compound?
Answer: Its TGI is over 100 µM.

Question: And the TGI [33]?
Answer: Its TGI is over 100 µM.

Question: And the TGI [34]?
Answer: The TGI was 81.6 µM.

Question: What about the TGI [35] of the same compound?
Answer: Its TGI is over 100 µM.

Question: What about the TGI [36] of the same compound?
Answer: The TGI was 73 µM.

Question: And the TGI [37]?
Answer: The TGI was 40.8 µM.

Question: And the TGI [38]?
Answer: The TGI was over 100 µM.

Question: What about the TGI [39] of the same compound?
Answer: The TGI was over 100 µM.

Question: What about the TGI [40] of the same compound?
Answer: Its TGI is over 100 µM.

Question: And the TGI [41]?
Answer: Its TGI is 97.6 µM.

Question: What about the TGI [42] of the same compound?
Answer: Its TGI is over 100 µM.

Question: And the TGI [43]?
Answer: Its TGI is over 100 µM.

Question: And the TGI [44]?
Answer: Its TGI is 77.2 µM.

Question: What about the TGI [45] of the same compound?
Answer: Its TGI is 67 µM.

Question: And the TGI [46]?
Answer: Its TGI is 35.4 µM.

Question: And the TGI [47]?
Answer: The TGI was over 100 µM.

Question: What about the TGI [48] of the same compound?
Answer: The TGI was over 100 µM.

Question: What about the TGI [49] of the same compound?
Answer: The TGI was over 100 µM.

Question: And the TGI [50]?
Answer: Its TGI is over 100 µM.
